Measurements: patent US11952388B2, “Crystal form of tri-cycle compound and application thereof” (FUJIAN AKEYLINK BIOTECHNOLOGY CO., LTD., priority 2018, dated 2024)

What was measured:
[1] = biological target: T1, CYP1A2 (Homo sapiens, UniProt P05177); experiment: Inhibition of human liver microsomal cytochrome P450 isoenzymes; assay type: in vitro ADME; settings: human liver microsomes
T1 construct: from tissue; host or cells: human liver microsomes
T1 sequence (P05177 1-516): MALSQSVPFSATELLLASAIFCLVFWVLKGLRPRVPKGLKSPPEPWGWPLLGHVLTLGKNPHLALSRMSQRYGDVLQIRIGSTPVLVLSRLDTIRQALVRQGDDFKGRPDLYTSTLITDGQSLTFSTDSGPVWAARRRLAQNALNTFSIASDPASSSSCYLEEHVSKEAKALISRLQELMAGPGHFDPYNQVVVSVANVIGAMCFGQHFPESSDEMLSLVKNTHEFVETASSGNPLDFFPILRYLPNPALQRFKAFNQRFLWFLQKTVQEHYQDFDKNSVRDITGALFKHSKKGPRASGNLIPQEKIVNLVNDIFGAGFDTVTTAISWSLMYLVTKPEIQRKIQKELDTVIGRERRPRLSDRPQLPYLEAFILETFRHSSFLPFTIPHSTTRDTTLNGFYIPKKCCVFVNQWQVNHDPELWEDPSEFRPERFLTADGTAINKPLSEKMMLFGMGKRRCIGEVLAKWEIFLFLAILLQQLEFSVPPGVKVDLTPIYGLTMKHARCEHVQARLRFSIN
Description: (§1) Objectives of experiment: To determine the inhibitory effect of the test compound on the activity of human liver microsomal cytochrome P450 isoenzymes (CYP1A2, CYP2C9, CYP2C19, CYP2D6 and CYP3A4). Experimental operation: First, the test compound (10 mM) was diluted in a gradient to prepare the working solutions (100× final concentration). The concentrations of the working solutions were 5, 1.5, 0.5, 0.15, 0.05, 0.015 and 0.005 mM. Meanwhile, the working solutions of mixture (5 in 1) of positive inhibitors of each P450 isoenzyme (CYP1A2, CYP2C9, CYP2C19, CYP2D6 and CYP3A4) and the specific substrate of the isoenzymes were also prepared; the human liver microsomes frozen in the refrigerator at −80° C. were unfrozen on ice. After the human liver microsomes were completely dissolved, they were diluted with PB to prepare a certain concentration (0.253 mg/mL) of working solution; 20 uL of the substrate mixture was added into the reaction plate (20 μl PB was added into the Blank well) as well as 158 μL of human liver microsome working solution, then the reaction plate was placed on ice and set aside; at this time, 2 μL of each concentration of test compound (N=1) and specific inhibitor (N=2) were added to the corresponding well, the group without inhibitor (test compound or positive inhibitor) was added with the corresponding organic solvent as a control sample (the test compound control sample was 1:1 DMSO:MeOH, and the positive control sample was 1:9 DMSO:MeOH); after pre-incubating in a 37° C. water bath for 10 min, the reaction plate was added with 20 μL of coenzyme factor (NADPH) solution and water bathed at 37° C. for 10 min; 400 μL of cold acetonitrile solution (internal standard was 200 ng/mL Tolbutamide and Labetalol) was added to terminate the reaction; the reaction plate was then placed on a shaker and shaken for 10 min, followed by centrifuging at 4,000 rpm for 20 min; 200 μL of supernatant was added to 100 μL of water for sample dilution; finally, the plate was sealed, shaken well, and subjected to LC/MS/MS detection.

[2] = biological target: T2, CYP2D6 (Homo sapiens, UniProt P10635); experiment: as above; assay type: in vitro ADME; settings: human liver microsomes
T2 construct: from tissue; host or cells: human liver microsomes
T2 sequence (P10635 whole entry): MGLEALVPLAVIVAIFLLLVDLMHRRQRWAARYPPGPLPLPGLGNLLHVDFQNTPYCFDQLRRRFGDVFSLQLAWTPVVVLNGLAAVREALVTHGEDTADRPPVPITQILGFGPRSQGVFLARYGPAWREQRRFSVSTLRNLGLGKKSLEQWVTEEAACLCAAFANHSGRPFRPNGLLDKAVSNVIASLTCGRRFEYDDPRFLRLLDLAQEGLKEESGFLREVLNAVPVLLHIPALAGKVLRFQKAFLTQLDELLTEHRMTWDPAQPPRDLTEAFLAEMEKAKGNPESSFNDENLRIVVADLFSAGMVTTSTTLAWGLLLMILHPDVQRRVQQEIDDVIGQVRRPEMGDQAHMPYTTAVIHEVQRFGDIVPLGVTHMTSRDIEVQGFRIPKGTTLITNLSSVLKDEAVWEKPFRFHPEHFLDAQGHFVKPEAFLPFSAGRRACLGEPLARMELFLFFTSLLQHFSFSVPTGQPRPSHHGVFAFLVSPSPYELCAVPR
Description: as §1

[3] = system: hepatitis B virus; experiment: In vivo drug efficacy, AAV/HBV mouse model; settings: AAV/HBV mouse model, 15, 50, 150 mg/kg BID PO, 28 days
Description: FIG. 7: The level of Hepatitis B virus DNA in plasma; broken line 1 means blank control, 10% solutol aqueous solution was administered quaque die (QD), per os (PO); broken line 2 means that WX-325 was administrated at a dose of 15 mg/kg bis in die (BID) at an interval of 8 hours, per os (PO); the broken line 3 means that WX-325 was administrated at a dose of 50 mg/kg bis in die (BID) at an interval of 8 hours, per os (PO); broken line 5 means that WX-325 was administrated at a dose of 150 mg/kg bis in die (BID) at an interval of 8 hours, per os (PO); broken line 6 means that tenofovir (TDF) of the positive compound was administrated at a dose of 15 mg/kg bis in die (BID) at an interval of 8 hours, per os (PO); LLOQ means lower limit of detection; Note: WX-325 in FIG. 7 means the compound represented by formula (I) of the present invention. […]
Experimental operation: The day of the first administration was designated as day 0, the day before administration was designated as day −1, the day after administration was designated as day 1, and so on. […] The content of HBV DNA, HBeAg and HBsAg were detected using the serum. […] Both drugs were administered for 28 days, and blood samples were taken on day 3, 7, 10 and 28 after administration, and the level of HBV DNA in plasma was detected by qPCR. […]

Cc1cc2n(c1)S(=O)(=O)c1ccc(C(=O)NCC[C@H]3COCCO3)cc1NC2=O [compound represented by formula (I)]
IC50 [1]: > 50 µM | inhibitory effect on CYP1A2 (conclusion in words) [1]: no evident inhibitory effect | IC50 [2]: > 50 µM | inhibitory effect on CYP2D6 (conclusion in words) [2]: no evident inhibitory effect | in vivo efficacy, HBV DNA in plasma and liver (conclusion in words) [3]: good in vivo efficacy and a dose-dependent effect
